From ChEMBL document CHEMBL1201862, “PubChem BioAssay data set” (2004)
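Step 1: Grow cells in 96-well plates. Step 2: Expose to compound for 48 hours at 5 concentrations. Step 3: Interpolate endpoints linearly; if unreached, use highest concentration. GI50 is the concentration that inhibits growth by half.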 Calls of active or inactive are those of the source. No stated cut-off is given here; in the data, active = GI50 up to about 1.1 µM and inactive = higher.

Experiments:
Assay in all cases: DTP human tumour cell line panel, 48 h
[1] = system: IGROV-1
[2] = system: Hs-578T
[3] = system: NCI-H460
[4] = system: HCT-15
[5] = system: NCI-H522
[6] = system: NCI/ADR-RES
[7] = system: SW-620
[8] = system: DU-145
[9] = system: HOP-62
[10] = system: SR
[11] = system: T47D
[12] = system: UACC-62
[13] = system: PC-3
[14] = system: LOX IMVI
[15] = system: COLO 205
[16] = system: MDA-MB-231
[17] = system: SK-OV-3
[18] = system: ACHN
[19] = system: Malme-3M
[20] = system: M14
[21] = system: SK-MEL-5
[22] = system: HCT-116
[23] = system: OVCAR-3
[24] = system: SF-268
[25] = system: HOP-92
[26] = system: EKVX
[27] = system: MOLT-4
[28] = system: SF-295
[29] = system: SN12C
[30] = system: SNB-75
[31] = system: OVCAR-4
[32] = system: OVCAR-8
[33] = system: MDA-N
[34] = system: HT-29
[35] = system: SK-MEL-2
[36] = system: UACC-257
[37] = system: A549
[38] = system: NCI-H226
[39] = system: KM12
[40] = system: HL-60
[41] = system: OVCAR-5
[42] = system: U-251
[43] = system: K562
[44] = system: BT-549
[45] = system: RPMI-8226
[46] = system: TK-10
[47] = system: CCRF-CEM
[48] = system: MCF7
[49] = system: SK-MEL-28
[50] = system: UO-31
[51] = system: SNB-19
[52] = system: SF-539
[53] = system: 786-0
[54] = system: MDA-MB-435
[55] = system: NCI-H23
[56] = system: CAKI-1
[57] = system: A498
[58] = system: RXF 393
[59] = system: HCC 2998

How did the GI50 [1] turn out when `CC(C)c1cc(C(C)C)c(B(c2ccccc2)c2ccccc2)c(C(C)C)c1B(c1ccccc1)c1ccccc1` was run?
The GI50 was > 100 µM (inactive).

What about the GI50 [2] of the same compound?
Its GI50 is > 100 µM (inactive).

And the GI50 [3]?
Its GI50 is > 100 µM (inactive).

What about the GI50 [4] of the same compound?
Its GI50 is > 100 µM.

What about the GI50 [5] of the same compound?
Its GI50 is > 100 µM (inactive).

And the GI50 [6]?
Its GI50 is > 100 µM (inactive).

And the GI50 [7]?
Its GI50 is > 100 µM (inactive).

And the GI50 [8]?
Its GI50 is > 100 µM (inactive).

What about the GI50 [9] of the same compound?
The GI50 was > 100 µM (inactive).

And the GI50 [10]?
The GI50 was > 100 µM (inactive).

What about the GI50 [11] of the same compound?
The GI50 was > 100 µM (inactive).

And the GI50 [12]?
The GI50 was > 100 µM (inactive).

And the GI50 [13]?
Its GI50 is > 100 µM (inactive).

What about the GI50 [14] of the same compound?
The GI50 was > 100 µM (inactive).

What about the GI50 [15] of the same compound?
The GI50 was > 100 µM (inactive).

And the GI50 [16]?
The GI50 was > 100 µM (inactive).

And the GI50 [17]?
The GI50 was > 100 µM (inactive).

And the GI50 [18]?
Its GI50 is > 100 µM (inactive).

And the GI50 [19]?
Its GI50 is > 100 µM (inactive).

And the GI50 [20]?
Its GI50 is > 100 µM (inactive).

And the GI50 [21]?
The GI50 was > 100 µM (inactive).

And the GI50 [22]?
The GI50 was > 100 µM (inactive).

And the GI50 [23]?
Its GI50 is > 100 µM (inactive).

What about the GI50 [24] of the same compound?
Its GI50 is > 100 µM (inactive).

And the GI50 [25]?
Its GI50 is > 100 µM (inactive).

What about the GI50 [26] of the same compound?
Its GI50 is > 100 µM (inactive).

And the GI50 [27]?
Its GI50 is > 100 µM (inactive).

What about the GI50 [28] of the same compound?
The GI50 was > 100 µM (inactive).

And the GI50 [29]?
Its GI50 is > 100 µM (inactive).

And the GI50 [30]?
The GI50 was > 100 µM (inactive).

What about the GI50 [31] of the same compound?
Its GI50 is > 100 µM (inactive).

What about the GI50 [32] of the same compound?
The GI50 was > 100 µM (inactive).

What about the GI50 [33] of the same compound?
The GI50 was > 100 µM (inactive).

What about the GI50 [34] of the same compound?
The GI50 was > 100 µM (inactive).

And the GI50 [35]?
The GI50 was > 100 µM (inactive).

And the GI50 [36]?
The GI50 was > 100 µM (inactive).

What about the GI50 [37] of the same compound?
Its GI50 is > 100 µM (inactive).

Which GI50 [38] does the source give for `COC(=O)c1cnc(Cl)cn1` here?
Its GI50 is 35.2 µM (inactive).

And the GI50 [1]?
The GI50 was 29.4 µM (inactive).

What about the GI50 [2] of the same compound?
Its GI50 is 50.6 µM (inactive).

What about the GI50 [3] of the same compound?
Its GI50 is > 100 µM (inactive).

And the GI50 [39]?
Its GI50 is 24.9 µM (inactive).

What about the GI50 [4] of the same compound?
The GI50 was 17.3 µM.

And the GI50 [5]?
The GI50 was 2.49 µM (inactive).

What about the GI50 [40] of the same compound?
Its GI50 is 32.7 µM (inactive).

What about the GI50 [6] of the same compound?
The GI50 was 45.6 µM (inactive).

And the GI50 [41]?
The GI50 was 58.3 µM (inactive).

And the GI50 [7]?
The GI50 was 63.7 µM (inactive).

And the GI50 [42]?
Its GI50 is 34.9 µM (inactive).

And the GI50 [8]?
Its GI50 is > 100 µM (inactive).

And the GI50 [43]?
Its GI50 is 40.1 µM (inactive).

And the GI50 [9]?
Its GI50 is > 100 µM (inactive).

What about the GI50 [10] of the same compound?
Its GI50 is 42.5 µM (inactive).

What about the GI50 [44] of the same compound?
The GI50 was 37 µM (inactive).

And the GI50 [11]?
Its GI50 is 40.3 µM (inactive).

What about the GI50 [45] of the same compound?
The GI50 was 21 µM (inactive).

What about the GI50 [12] of the same compound?
The GI50 was 33 µM (inactive).

What about the GI50 [13] of the same compound?
Its GI50 is 13.6 µM (inactive).

What about the GI50 [14] of the same compound?
Its GI50 is 33.4 µM (inactive).

What about the GI50 [15] of the same compound?
Its GI50 is > 100 µM (inactive).

What about the GI50 [16] of the same compound?
Its GI50 is 71.8 µM (inactive).

And the GI50 [46]?
The GI50 was > 100 µM (inactive).

And the GI50 [47]?
Its GI50 is 35.9 µM (inactive).

What about the GI50 [48] of the same compound?
The GI50 was 38.4 µM (inactive).

And the GI50 [17]?
Its GI50 is > 100 µM (inactive).

What about the GI50 [18] of the same compound?
Its GI50 is 71 µM (inactive).

And the GI50 [19]?
The GI50 was 50.2 µM (inactive).

And the GI50 [20]?
Its GI50 is 53.8 µM (inactive).

What about the GI50 [49] of the same compound?
The GI50 was 53.3 µM (inactive).

And the GI50 [21]?
The GI50 was 59.2 µM (inactive).

And the GI50 [22]?
Its GI50 is 38.2 µM (inactive).

What about the GI50 [50] of the same compound?
Its GI50 is 20.2 µM (inactive).

And the GI50 [24]?
Its GI50 is 49 µM (inactive).

And the GI50 [25]?
The GI50 was 28.4 µM (inactive).

And the GI50 [26]?
The GI50 was 33.3 µM (inactive).

And the GI50 [51]?
Its GI50 is > 100 µM (inactive).

And the GI50 [27]?
Its GI50 is 41.4 µM (inactive).

What about the GI50 [52] of the same compound?
The GI50 was 74.3 µM (inactive).

And the GI50 [28]?
The GI50 was > 100 µM (inactive).

And the GI50 [29]?
The GI50 was 30.5 µM (inactive).

What about the GI50 [53] of the same compound?
The GI50 was > 100 µM (inactive).

What about the GI50 [30] of the same compound?
Its GI50 is 90.4 µM (inactive).

And the GI50 [31]?
The GI50 was 20.2 µM (inactive).

What about the GI50 [32] of the same compound?
The GI50 was 73.5 µM (inactive).

And the GI50 [54]?
Its GI50 is 48.4 µM (inactive).

What about the GI50 [55] of the same compound?
The GI50 was 20.1 µM (inactive).

And the GI50 [34]?
Its GI50 is 54.3 µM (inactive).

What about the GI50 [35] of the same compound?
The GI50 was 48 µM (inactive).

What about the GI50 [36] of the same compound?
Its GI50 is 57.9 µM (inactive).

And the GI50 [37]?
Its GI50 is > 100 µM (inactive).

And the GI50 [56]?
The GI50 was 17.5 µM (inactive).

Which results are given for `CCCCC1CCCCCCc2[nH]c(/C=C3\N=C(c4ccc[nH]4)C=C3OC)cc21` (centres undefined)?
GI50 [38]: 0.205 µM (active); GI50 [1]: < 0.0188 µM (active); GI50 [2]: 0.0331 µM (active); GI50 [3]: < 0.01 µM (active); GI50 [39]: < 0.01 µM (active); GI50 [4]: < 0.01 µM; GI50 [5]: < 0.016 µM (active); GI50 [40]: < 0.01 µM (active); GI50 [6]: < 0.0169 µM (active); GI50 [41]: 0.116 µM (active); GI50 [7]: < 0.01 µM (active); GI50 [42]: < 0.0122 µM (active); GI50 [8]: < 0.0109 µM (active); GI50 [43]: < 0.01 µM (active); GI50 [9]: 0.0181 µM (active); GI50 [10]: < 0.01 µM (active); GI50 [11]: < 0.01 µM (active); GI50 [45]: < 0.01 µM (active); GI50 [12]: < 0.0127 µM (active); GI50 [13]: < 0.0119 µM (active); GI50 [14]: < 0.01 µM (active); GI50 [15]: < 0.011 µM (active); GI50 [16]: < 0.024 µM (active); GI50 [46]: 0.338 µM (active); GI50 [47]: < 0.01 µM (active); GI50 [48]: < 0.0139 µM (active); GI50 [57]: 0.515 µM (active); GI50 [17]: 0.326 µM (active); GI50 [18]: < 0.0111 µM (active); GI50 [19]: 0.0241 µM (active); GI50 [20]: 0.0136 µM (active); GI50 [49]: < 0.0162 µM (active); GI50 [21]: 0.0128 µM (active); GI50 [22]: < 0.01 µM (active); GI50 [50]: 0.0194 µM (active); GI50 [23]: < 0.01 µM (active); GI50 [24]: 0.0676 µM (active); GI50 [25]: < 0.0119 µM (active); GI50 [26]: < 0.0167 µM (active); GI50 [51]: 0.151 µM (active); GI50 [27]: < 0.01 µM (active); GI50 [52]: 0.0308 µM (active); GI50 [28]: < 0.0191 µM (active); GI50 [29]: < 0.0185 µM (active); GI50 [58]: 0.078 µM (active); GI50 [53]: < 0.01 µM (active); GI50 [30]: < 0.0306 µM (active); GI50 [31]: < 0.0127 µM (active); GI50 [32]: < 0.0223 µM (active); GI50 [54]: < 0.01 µM (active); GI50 [55]: < 0.0221 µM (active); GI50 [59]: < 0.01 µM (active); GI50 [33]: < 0.0139 µM (active); GI50 [34]: < 0.01 µM (active); GI50 [35]: < 0.0124 µM (active); GI50 [36]: 0.13 µM (active); GI50 [37]: < 0.0139 µM (active); GI50 [56]: 0.0502 µM (active)
